Assay results as given in patent publication US11731943B2, “Therapeutic compounds, compositions and methods of use thereof” (priority 2016, dated 2023).
pIC50, pKi: −log10 of the molar value. Where two headings read alike, the source gives them in different places.

Experiments:
[1] = target: isolated recombinant JAK1 kinase domain (Homo sapiens (Human), UniProt P23458); assay: JAK1 enzyme assay (Caliper LabChip, Ki); type: biochemical
Procedure, shortened: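 Recombinant human JAK1 kinase domain phosphorylating an N-terminally 5-carboxyfluorescein-labelled JAK3-derived peptide, 30 min at 22 °C, stopped with EDTA (50 mM final). Phosphorylated fraction of total peptide read by Caliper LabChip mobility shift; Ki from Morrison tight-binding fit corrected for ATP competition (Ki=Ki,app/(1+[ATP]/Km,app)).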

[2] = target: isolated recombinant JAK2 kinase domain (Homo sapiens (Human), UniProt O60674); assay: JAK2 enzyme assay (Caliper LabChip, Ki); type: biochemical
Procedure, shortened: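 Recombinant human JAK1 or JAK2 kinase domain phosphorylating a 5-carboxyfluorescein-labelled JAK3-derived peptide; 30 min at 22 °C, stopped with EDTA (50 mM final). Phosphorylated product measured as a fraction of total peptide by Caliper LabChip mobility shift.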

[3] = system: JAK1-dependent STAT6 phosphorylation downstream of IL-13 stimulation in BEAS-2B human bronchial epithelial cells; assay: JAK1 pathway assay in BEAS-2B cells (IL-13-pSTAT6, MSD); type: cell-based; settings: BEAS-2B cells, IL-13 stimulation, read-out: IL-13 p-STAT6 BEAS-2B IC50

Chain of isolated recombinant JAK2 kinase domain (O60674 849-1124): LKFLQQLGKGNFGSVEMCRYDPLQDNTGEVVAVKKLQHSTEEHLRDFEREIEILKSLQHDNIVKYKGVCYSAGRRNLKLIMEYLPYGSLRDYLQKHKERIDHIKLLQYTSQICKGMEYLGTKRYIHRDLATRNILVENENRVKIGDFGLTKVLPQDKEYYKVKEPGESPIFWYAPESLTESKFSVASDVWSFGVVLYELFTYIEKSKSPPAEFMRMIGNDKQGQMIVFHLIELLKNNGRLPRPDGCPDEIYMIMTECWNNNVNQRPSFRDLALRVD
Chain of isolated recombinant JAK1 kinase domain (P23458 875-1153): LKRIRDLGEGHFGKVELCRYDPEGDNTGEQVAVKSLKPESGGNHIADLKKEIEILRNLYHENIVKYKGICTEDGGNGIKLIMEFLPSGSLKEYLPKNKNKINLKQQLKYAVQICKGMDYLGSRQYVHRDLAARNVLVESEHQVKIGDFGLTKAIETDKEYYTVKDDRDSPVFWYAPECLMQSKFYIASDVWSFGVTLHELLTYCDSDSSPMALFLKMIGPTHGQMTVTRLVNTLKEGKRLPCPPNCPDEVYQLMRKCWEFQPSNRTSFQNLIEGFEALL

With `CN(C)C(=O)c1cccc(-c2ccc(CN3CCC(CC#N)(n4cc(C(N)=O)c(NC(=O)C5CC5)n4)CC3)cc2)c1` [Example 145, 1-[4-(cyanomethyl)-1-[[4-[3-(dimethylcarbamoyl)phenyl]phenyl]methyl]-4-piperidyl]-3-(cyclopropanecarbonylamino) pyrazole-4-carboxamide] the pKi ([1]; read-out: JAK1 Ki) was 8.51, the pKi [2] was 7.81 and the pIC50 ([3]; Homo sapiens, BEAS-2B) was under 6.00.

Molecule `N#CCC1(n2cc(C(N)=O)c(NC(=O)C3CC3)n2)CCN(Cc2ccc(-n3cccn3)cc2)CC1` [Example 87] has a pKi ([1]; read-out: JAK1 Ki) of 8.66, a pKi [2] of 7.60 and a pIC50 ([3]; Homo sapiens, BEAS-2B) of 6.46.

In the case of `N#CCC1(n2cc(C(N)=O)c(NC(=O)C3CC3)n2)CCN(Cc2ccc(-c3cccc(CO)c3)cc2)CC1` [Example 156, 1-[4-(cyanomethyl)-1-[[4-[3-(hydroxymethyl)phenyl]phenyl]methyl]-4-piperidyl]-3-(cyclopropanecarbonylamino) pyrazole-4-carboxamide], the pKi ([1]; read-out: JAK1 Ki) was 9.22, the pKi [2] was 8.37 and the pIC50 ([3]; Homo sapiens, BEAS-2B) was 6.68.

`CC(C)OC1(C(F)(F)F)CN([C@H]2CC[C@@](CC#N)(n3cc(C(N)=O)c(NC(=O)C4CC4)n3)CC2)C1` [Example 135] was tested, and the pKi ([1]; read-out: JAK1 Ki) was 8.62, the pKi [2] was 7.61 and the pIC50 ([3]; Homo sapiens, BEAS-2B) was 6.77.

Molecule `N#CCC1(n2cc(C(N)=O)c(NC(=O)C3CC3)n2)CCN(Cc2ccc(-n3nccn3)c(O)c2)CC1F` (stereo not drawn) [Example 286, 1-[4-(cyanomethyl)-3-fluoro-1-[[3-hydroxy-4-(triazol-2-yl)phenyl]methyl]-4-piperidyl]-3-(cyclopropanecarbonylamino) pyrazole-4-carboxamide] has a pKi ([1]; read-out: JAK1 Ki) of 9.37, a pKi [2] of 9.40 and a pIC50 ([3]; Homo sapiens, BEAS-2B) of 7.28.

`N#CCC1(n2cc(C(N)=O)c(NC(=O)C3CC3C#N)n2)CCN(CC2CCC(c3ccccc3)CC2)CC1F` (stereo not drawn) [Example 228, 3-[(2-cyanocyclopropanecarbonyl)amino]-1-[4-(cyanomethyl)-3-fluoro-1-[(4-phenylcyclohexyl)methyl]-4-piperidyl]pyrazole-4-carboxamide] was tested, and the pKi ([1]; read-out: JAK1 Ki) was 8.82, the pKi [2] was 8.11 and the pIC50 [3] was 7.11.

`CS(=O)(=O)Nc1cccc(CN2CCC(CC#N)(n3cc(C(N)=O)c(NC(=O)C4CC4)n3)CC2)c1` [Example 45] gave a pKi ([1]; read-out: JAK1 Ki) of 8.72, a pKi [2] of 8.07 and a pIC50 ([3]; Homo sapiens, BEAS-2B) of under 6.00.

`COC(=O)Nc1nn(C2(CC#N)CCN(Cc3cc(O)c(-c4ccccc4)cc3F)CC2F)cc1C(N)=O` (stereo not drawn) [Example 208, methyl N-[4-carbamoyl-1-[4-(cyanomethyl)-3-fluoro-1-[(2-fluoro-5-hydroxy-4-phenyl-phenyl)methyl]-4-piperidyl]pyrazol-3-yl]carbamate] showed a pKi ([1]; read-out: JAK1 Ki) of 9.77, a pKi [2] of 9.68 and a pIC50 ([3]; Homo sapiens, BEAS-2B) of 7.55.

Molecule `N#CCC1(n2cc(C(N)=O)c(NC(=O)C3CC3)n2)CCN(CC2CCC(c3ccccc3)CC2)CC1F` (stereo not drawn) [Example 234, 1-[4-(cyanomethyl)-3-fluoro-1-[(4-phenylcyclohexyl)methyl]-4-piperidyl]-3-(cyclopropanecarbonylamino) pyrazole-4-carboxamide] has a pKi ([1]; read-out: JAK1 Ki) of 9.57, a pKi [2] of 9.00 and a pIC50 [3] of 7.51.

Molecule `Cc1ccc(OC2(C)CN([C@H]3CC[C@](CC#N)(n4cc(C(N)=O)c(NC(=O)C5CC5)n4)CC3)C2)cc1` [Example 300, 1-[1-(cyanomethyl)-4-[3-methyl-3-(4-methylphenoxy)azetidin-1-yl]cyclohexyl]-3-(cyclopropanecarbonylamino) pyrazole-4-carboxamide] has a pKi ([1]; read-out: JAK1 Ki) of 8.82, a pKi [2] of 8.89 and a pIC50 ([3]; Homo sapiens, BEAS-2B) of 7.37.

`N#CC[C@]1(n2cc(C(N)=O)c(NC(=O)C3CC3)n2)CC[C@H](NCc2ccccc2Cl)CC1` [Example 117] was tested, and the pKi [1] was 8.43, the pKi [2] was 7.26 and the pIC50 ([3]; Homo sapiens, BEAS-2B) was 6.21.

`CS(=O)(=O)Nc1cc(CN2CCC(CC#N)(n3cc(C(N)=O)c(NC(=O)C4CC4)n3)CC2)ccc1F` [Example 79] was tested, and the pKi ([1]; read-out: JAK1 Ki) was 8.52, the pKi [2] was 7.85 and the pIC50 ([3]; Homo sapiens, BEAS-2B) was under 6.00.

`COC1CN([C@H]2CC[C@@](CC#N)(n3cc(C(N)=O)c(NC(=O)C4CC4)n3)CC2)C1` [Example 102] showed a pKi [1] of 8.48, a pKi [2] of 7.50 and a pIC50 ([3]; Homo sapiens, BEAS-2B) of 6.03.

Molecule `COC(=O)Nc1nn(C2(CC#N)CCN(Cc3cc(O)c(Br)cc3Cl)CC2F)cc1C(N)=O` (stereo not drawn) [Example 296, methyl N-[1-[1-[(4-bromo-2-chloro-5-hydroxy-phenyl)methyl]-4-(cyanomethyl)-3-fluoro-4-piperidyl]-4-carbamoyl-pyrazol-3-yl]carbamate] has a pKi ([1]; read-out: JAK1 Ki) of 9.25, a pKi [2] of 9.23 and a pIC50 ([3]; Homo sapiens, BEAS-2B) of 7.28.

For `COC(=O)Nc1nn(C2(CC#N)CCN(Cc3ccc(C4=CCCC4)nc3F)CC2F)cc1C(N)=O` (stereo not drawn) [Example 272, methyl N-[4-carbamoyl-1-[4-(cyanomethyl)-1-[[6-(cyclopenten-1-yl)-2-fluoro-3-pyridyl]methyl]-3-fluoro-4-piperidyl]pyrazol-3-yl]carbamate], the pKi ([1]; read-out: JAK1 Ki) was 9.17, the pKi [2] was 8.80 and the pIC50 ([3]; Homo sapiens, BEAS-2B) was 7.17.

In the case of `N#CCC1(n2cc(C(N)=O)c(NC(=O)C3CC3)n2)CCC(Oc2ccc(-c3ccccc3)cc2)CC1` (single isomer, unassigned) [Example 210, 1-(4-([1,1′-Biphenyl]-4-yloxy)-1-(cyanomethyl)cyclohexyl)-3-(cyclopropanecarboxamido)-1H-pyrazole-4-carboxamide], the pKi ([1]; read-out: JAK1 Ki) was 8.68, the pKi [2] was 8.29 and the pIC50 [3] was 7.12.

`C#Cc1ccc(CN2CCC(CC#N)(n3cc(C(N)=O)c(NC(=O)OC)n3)C(F)C2)c(F)c1` (stereo not drawn) [Example 297, methyl N-[4-carbamoyl-1-[4-(cyanomethyl)-1-[(4-ethynyl-2-fluoro-phenyl)methyl]-3-fluoro-4-piperidyl]pyrazol-3-yl]carbamate] gave a pKi ([1]; read-out: JAK1 Ki) of 9.28, a pKi [2] of 9.12 and a pIC50 ([3]; Homo sapiens, BEAS-2B) of 7.21.

Work on `COC(=O)Nc1nn(C2(CC#N)CCN(Cc3cc(O)c(-c4ccoc4)cc3F)CC2F)cc1C(N)=O` (stereo not drawn) [Example 237, methyl N-[4-carbamoyl-1-[4-(cyanomethyl)-3-fluoro-1-[[2-fluoro-4-(3-furyl)-5-hydroxy-phenyl]methyl]-4-piperidyl]pyrazol-3-yl]carbamate] yielded a pKi ([1]; read-out: JAK1 Ki) of 9.66, a pKi [2] of 9.52 and a pIC50 ([3]; Homo sapiens, BEAS-2B) of 7.57.

With `N#CCC1(n2cc(C(N)=O)c(NC(=O)C3CC3)n2)CCN(C(=O)CCC(F)(F)F)CC1` [Example 169, 1-[4-(cyanomethyl)-1-(4,4,4-trifluorobutanoyl)-4-piperidyl]-3-(cyclopropanecarbonylamino) pyrazole-4-carboxamide] the pKi ([1]; read-out: JAK1 Ki) was 8.43, the pKi [2] was 7.32 and the pIC50 ([3]; Homo sapiens, BEAS-2B) was under 6.00.

Molecule `COC(=O)Nc1nn(C2(CC#N)CCN(Cc3ccc(-c4ccco4)nc3F)CC2F)cc1C(N)=O` (stereo not drawn) [Example 226, methyl N-[4-carbamoyl-1-[4-(cyanomethyl)-3-fluoro-1-[[2-fluoro-6-(2-furyl)-3-pyridyl]methyl]-4-piperidyl]pyrazol-3-yl]carbamate] has a pKi ([1]; read-out: JAK1 Ki) of 9.43, a pKi [2] of 9.25 and a pIC50 ([3]; Homo sapiens, BEAS-2B) of 7.31.

`N#CC[C@@]1(n2cc(C(N)=O)c(NC(=O)C3CC3)n2)CCN(Cc2ccc(-c3ccccc3)cc2)C[C@H]1F` (single isomer, unassigned) [Example 15] showed a pKi ([1]; read-out: JAK1 Ki) of 8.38, a pKi [2] of 7.51 and a pIC50 ([3]; Homo sapiens, BEAS-2B) of 6.55.

With `CN(CC(F)(F)F)[C@H]1CC[C@](CC#N)(n2cc(C(N)=O)c(NC(=O)C3CC3)n2)CC1` [Example 129] the pKi [1] was 8.48, the pKi [2] was 7.79 and the pIC50 ([3]; Homo sapiens, BEAS-2B) was 6.41.

Molecule `CCn1ccc(-c2ccc(CN3CCC(CC#N)(n4cc(C(N)=O)c(NC(=O)C5CC5)n4)C(F)C3)c(F)c2)n1` (stereo not drawn) [Example 242, 1-[4-(cyanomethyl)-1-[[4-(1-ethylpyrazol-3-yl)-2-fluoro-phenyl]methyl]-3-fluoro-4-piperidyl]-3-(cyclopropanecarbonylamino) pyrazole-4-carboxamide] has a pKi ([1]; read-out: JAK1 Ki) of 9.22, a pKi [2] of 9.29 and a pIC50 ([3]; Homo sapiens, BEAS-2B) of 7.26.

`Cc1c(CN2CCC(CC#N)(n3cc(C(N)=O)c(NC(=O)C4CC4)n3)CC2)ccc(-c2ccccc2)c1O` [Example 194, 1-[4-(cyanomethyl)-1-[(3-hydroxy-2-methyl-4-phenyl-phenyl)methyl]-4-piperidyl]-3-(cyclopropanecarbonylamino) pyrazole-4-carboxamide] showed a pKi ([1]; read-out: JAK1 Ki) of 9.20, a pKi [2] of 8.66 and a pIC50 ([3]; Homo sapiens, BEAS-2B) of 7.30.

`N#CCC1(n2cc(C(N)=O)c(NC(=O)C3CC3)n2)CCN(C(=O)NC2CC(F)(F)C2)CC1` [Example 21, 4-(4-Carbamoyl-3-(cyclopropanecarboxamido)-1H-pyrazol-1-yl)-4-(cyanomethyl)-N-(3,3-difluorocyclobutyl) piperidine-1-carboxamide] was tested, and the pKi ([1]; read-out: JAK1 Ki) was 8.64, the pKi [2] was 7.32 and the pIC50 ([3]; Homo sapiens, BEAS-2B) was under 6.00.

`COC(=O)Nc1nn(C2(CC#N)CCN(CC3CCC(c4ccccc4)CC3)CC2F)cc1C(N)=O` (stereo not drawn) [Example 236, methyl N-[4-carbamoyl-1-[4-(cyanomethyl)-3-fluoro-1-[(4-phenylcyclohexyl)methyl]-4-piperidyl]pyrazol-3-yl]carbamate] was tested, and the pKi ([1]; read-out: JAK1 Ki) was 9.68, the pKi [2] was 8.85 and the pIC50 [3] was 7.72.

Molecule `CCn1ccc(-c2ccc(CN3CCC(CC#N)(n4cc(C(N)=O)c(NC(=O)C5CC5)n4)C(F)C3)cc2)n1` (stereo not drawn) [Example 217, 1-[4-(cyanomethyl)-1-[[4-(1-ethylpyrazol-3-yl)phenyl]methyl]-3-fluoro-4-piperidyl]-3-(cyclopropanecarbonylamino) pyrazole-4-carboxamide] has a pKi ([1]; read-out: JAK1 Ki) of 9.18, a pKi [2] of 9.31 and a pIC50 ([3]; Homo sapiens, BEAS-2B) of 7.25.

With `COc1cccc(-c2ccc(CN3CCC(CC#N)(n4cc(C(N)=O)c(NC(=O)C5CC5)n4)CC3)cc2)c1` [Example 152, 1-[4-(cyanomethyl)-1-[[4-(3-methoxyphenyl)phenyl]methyl]-4-piperidyl]-3-(cyclopropanecarbonylamino) pyrazole-4-carboxamide] the pKi ([1]; read-out: JAK1 Ki) was 8.89, the pKi [2] was 8.11 and the pIC50 ([3]; Homo sapiens, BEAS-2B) was 6.90.
